Tested on: PSMA+HEK cells
Assay: Luminescence ADCC reporter (CD16α activation) assay with mmAb
Type: cell-based, human
Conditions: antibody 10^−7-10^−9 M
Method: Covalent vs. non-covalent antibody recruitment were compared in functional immune assays. Activation of NK cell CD16α immune receptors was assessed via luminescence based ADCC assays. ADCC was quantified using the ADCC Reportor Bioassay kit (Promega G7010). All ADCC induced luminescence was measured on a SpectraMax i3 plate reader (Molecular Devices). The human IgG isotype control used was purchased from Jackson ImmunoResearch (009-000-003). The human IgG1 monoclonal anti-DNP antibody (mAb) was purchased from Acrobiosystems (DNP-M2). Human IgG from serum was purchased from Innovative Research ([…]1000MG). Anti-DNP depleted serum was made from human IgG from serum (Innovative Research). For PSMA competition controls, 2-PMPA was purchased from Sigma (SML1612). Hek-293T (PSMA+/−) cell lines were generously given by Dr. Cyril Barinka (Institute of Biotechnology CAS, Czech Republic). Ultra low IgG FBS was purchased from Fischer Scientific (A3381901). RPMI-1640 was purchased as a powder from Fischer Scientific (31800089) and resuspended. DMEM was purchased as a powder from Fischer Scientific (12800082) and resuspended. Pen/Strep was purchased from Fischer Scientific (15140-122). FBS was purchased from Fischer Scientific (12484-028). Zeocin was purchased from Fischer Scientific (R25001). HEK-PSMA cells were cultured in DMEM media with 2 mM L-glut, 1% Pen/Strep, 10% FBS, 50 ug/mL Zeocin. HEK cells were cultured in DMEM media with 2 mM L-glut, 1% Pen/Strep, 10% FBS.
Preparation of antibody-CIR/ARM stocks were mixed overnight prior to addition to the ADCC plate. In the case of mmAb and mAb, incubation was carried out at 600 nM antibody and 1.2 μM CIR or ARM. In the case of IgG from serum, incubation was completed at 230 μM antibody and 8.7 μM CIR or ARM. In all cases, DMSO was kept close to 1%. After the overnight incubation, a dilution series was completed on the antibody-CIR/ARM stocks in RPMI (1% DMSO). […] 75 μL of Bio-Glo Luciferase Assay Reagent was added to each well, and luminescence was quantified using the SpectraMax i3 plate reader. […]

| SMILES | CD16α based target immune recognition |
| --- | --- |
| O=C(O)CC[C@H](NC(=O)N[C@@H](CCCCNC(=O)NCCOCCOCCOCCOCCOCCOCCOCCOC(=O)NCCOCCn1cc(CNc2ccc([N+](=O)[O-])cc2[N+](=O)[O-])nn1)C(=O)O)C(=O)O [ARM 12, reference compound] | largely unable to mediate immune recognition of target HEK cells |
| O=C(O)CC[C@H](NC(=O)N[C@@H](CCCCNC(=O)NCCOCCOCCOCCOCCOCCOCCOCCOC(=O)n1cnc(CCn2cc(CNc3ccc([N+](=O)[O-])cc3[N+](=O)[O-])nn2)c1)C(=O)O)C(=O)O [CIR 5] | robust target immune recognition |

— patent US11827624B2, “Covalent immune recruiter compounds for immune cell recognition and associated uses” (McMaster University, priority 2020, dated 2023)
